Results on 2 compounds are retold here after patent US20240287025A1, “TETRAHYDROQUINOLINE (THQ) COUMPOUNDS” (Centre National de la Recherche Scientifique, priority 2021, published 2024).

The target of assay [1] is Brd4 BD1 (Homo sapiens (Human), UniProt O60885). The assay can be described thus: HTRF evaluation of bromodomain inhibitors, Brd4 BD1. Type of assay: binding. Particulars: H4ac4 peptide 50 nM, 4 h at 4° C. The procedure:
(§1) HTRF reagents and buffers were purchased from Cisbio Bioassays. The assay used a terbium (Ill) cryptate donor reagent conjugated to an anti-GST antibody (MAb anti-GST-Tb; GSTTLA), a streptavidin-conjugated acceptor reagent (streptavidin-d2) and Cisbio proprietary buffers (EPlgeneous Binding Domain Diluent and Detection buffer, respectively). GST-tagged bromodomains (BDs) were expressed in E. coli and purified using standard procedures. Incubation of GST-tagged BDs with biotinylated acetylated H4 peptide (H4K5acK8acK12acK16ac, here named H4ac4) brings the donor and acceptor into close proximity and allows for a FRET reaction. GST-tagged proteins in 25 mM Hepes pH 7.5, 150 mM NaCl, 0.5 mM DTT were assayed at a final concentration of 5 nM. Biotinylated H4ac4 peptides were used at a final concentration of 50, 600 nM in assays involving Brd4 BD1, Brd4 BD2, respectively. The antibody-conjugated donor was used at 0.5 nM and the streptavidin-conjugated acceptor was used at ⅛ of the H4ac4 peptide concentration. Inhibitors were tested by performing an eleven-point dilution series with a maximal final concentration of […]. These concentrations allowed a fixed DMSO concentration at 0.2%, critical for a Z′ factor ≥0.8. Components were incubated at 4° C. for 4 h (BD1) or for 24 h (BD2). Experiments were performed in 384-well white plates (Greiner ref. 781080) and analyzed in a ClarioStar plate reader (BMG LABTECH, excitation at 330 nm and emission at 620 and 665 nm, corresponding to the donor and acceptor emission peaks, respectively; the 665/620 ratio is used to calculate the specific HTRF signal) with an integration delay of 60 μs and an integration time of 400 μs.

Assay [2] has as its target Brd4 BD2 (Homo sapiens (Human), UniProt O60885). The assay is described as follows: HTRF evaluation of bromodomain inhibitors, Brd4 BD2. The class given is binding. The note with it: for IC50: HTRF, H4ac4 peptide 600 nM, 24 h at 4° C.; for Selectivity BD2/BD1: ratio of the BD1 and BD2 IC50. The procedure: as §1
(In general: In TR-FRET formats the signal depends on donor and acceptor labels being close together.)

The test system of assay [3] is J774 mouse macrophages. The assay is described as follows: Cytotoxicity and anti-inflammatory activity (IL-6/TNFα, AI score) after iBET/LPS treatment. The class given is cell-based. Particulars: AI score versus cytotoxicity, FIG. 7. As to the method: J774 mouse macrophages were cultured in DMEM 10% Fetal Calf Serum (FCS) 1% penicillin and streptomycin at 37° C. 5% CO2. […]. Cells were then seeded at 250,000 cells/ml and treated with 1 μM, 10 μM and 100 μM for each iBET and, then, after 30 min, with 100 μg/ml LPS (lipopolysaccharides, Cell Signaling Technology ref: 14011S) to induce inflammatory response. After 24 h, cytotoxicity was evaluated using CytoTox-ONE™ Homogeneous Membrane Integrity Assay and/or CellTiter 96 Non-radioactive Cell Proliferation Assay (Promega) according to manufacturer's instructions. IL6 and TNFα secretion were assessed using respectively IL-6 Mouse ELISA assay and TNFα Mouse ELISA assay (Invitrogen) according to manufacturer's instructions.
Experimental procedure: J774 mouse macrophages were cultured in DMEM 10% Fetal Calf Serum (FCS) 1% penicillin and streptomycin at 37° C. 5% CO2. […] After 24 h, cytotoxicity was evaluated using the Cell Proliferation Kit I (Roche) according to manufacturer's instructions. IC50 were calculated using GraphPad (Prism) using non linear regression curve fit. IL6 and TNF[…] secretion was assessed using respectively IL-6 Mouse and TNFα Mouse ELISA assay (Invitrogen) on cell culture supernatants according to manufacturer's instructions. […]

Assay [4] deals with LPS-stimulated J774 mouse macrophages cells. The assay is described as follows: RNA sequencing, gene expression profiles of LPS-stimulated cells. The class given is cell-based. The note with it: 10 μM, 6 h, RNAseq. As to the method:
Experimental procedure: RNA was extracted from 5 million of LPS-stimulated J774 mouse macrophages cells treated for 6 h with DMSO (negative control), reference iBETs (JQ1 and iBET726, 1 μM) and lead compounds (MLE83 and JUP102, 10 μM) using Trizol (Invitrogen) according to manufacturer's instructions. RNA sequencing was subcontracted to BGI Genomics ([…] Sequencing Technology). FASTQ sequencing files were aligned to mouse genome (GRCm39 assembly) using STAR (v2.7.1a). Bam files were counted using HTSeq framework (v0.11.2). Reads normalization and differential analysis was performed suing SARTools and DESeq2 (v1.22.2) R packages. Genes were considered as differentially expressed when |log 2FC|>1 AND p value <0.05 between control and treated conditions. Gene Set Enrichment Analysis was performed using GSEA v4.2.1 software against the hallmark v7.5 gene sets from the Broad Institute Molecular Signature Database. A detailed description of GSEA methodology and interpretation is provided online (http://www.broadinstitute.org/gsea/doc/GSEAUserGui-deFrame.html).

One may read the IC50 as the concentration that inhibits the measured activity by half. In turn, `C=CCCCC(=O)Nc1ccc(-c2ccc3c(c2)[C@@H](n2cc(-c4ccccc4)nn2)[C@H](C)[C@H](CC)N3C(C)=O)cc1` [XD, N-(4-((2S,3R,4S)-1-acetyl-2-ethyl-3-methyl-4-(4-phenyl-1H-1,2,3-triazol-1-yl)-1,2,3,4-tetrahydroquinolin-6-yl)phenyl)hex-5-enamide] yielded an IC50 in assay [1] of 562 nM. In assay [2], the IC50 is 620 nM and the “Selectivity BD2/BD1” value stood at 1.1. Moreover, the inflammatory activity/toxicity ratio result in assay [3] was “best inflammatory activity/toxicity ratio”. Besides, in assay [4], the “GSEA analysis, iBET-associated cellular responses” value was “reduces inflammatory response and MYC signaling”; the “number of genes impacted, times fewer than JUP102” value was roughly 10 times.
As to `C#CCOCCOCCOCc1cn([C@@H]2c3cc(C(=O)OC)ccc3N(C(C)=O)[C@@H](CC)[C@H]2C)nn1` [XQ], half-maximal inhibition in assay [1] (IC50) required 16600 nM. Besides, in assay [2], it took 1490 nM to reach half-maximal inhibition (IC50) and the “Selectivity BD2/BD1” value worked out at 11.2. In addition, the inflammatory activity/toxicity ratio entry in assay [3] was “best inflammatory activity/toxicity ratio”. In addition, the “GSEA analysis, iBET-associated cellular responses” value in assay [4] is “reduces inflammatory response and MYC signaling”.
